# Columns and labels:
# Format in all cases: in vivo
# [1] = tested on: winter wheat (cv. Marius); assay: Wheat drought stress greenhouse trial (seed treatment); settings: ANE alone 1 ml/kg, CAR alone 0.3 g/kg; for plant vigour, Mean: 0-10 scale
# Method: Winter wheat seed (cv. Marius) was treated at a total application volume of 10 ml/kg with water (unstressed control and stressed control treatment groups), or an aqueous solution of Ascophyllum nodosum extract (ANE) at 1 ml/kg, or an aqueous solution of L-carnitine hydrochloride (CAR) at 0.3 g/kg, or combinations of Ascophyllum nodosum extract at 1 ml/kg with either 0.1, 0.2, 0.3, or 0.4 g/kg L-carnitine hydrochloride. Treated wheat seed was sown in soil in pots with 10 biological replicates per treatment group in a randomized complete block design. Four days after full emergence, drought stress was imposed on all but the unstressed control treatment group through a 50% reduced irrigation regime relative to the full irrigation received by the unstressed control group.
# soybean (cv. Mungo) = assay: Soybean drought stress greenhouse trial (seed treatment); settings: 51 days after sowing, ANE alone 1 ml/kg, CAR alone 0.3 g/kg
# Method: Soybean seed (cv. Mungo) was treated at a total application volume of 10 ml/kg with water (unstressed control and stressed control treatment groups), or an aqueous solution of Ascophyllum nodosum extract (ANE) at 1 ml/kg, or an aqueous solution of L-carnitine hydrochloride (CAR) at 0.3 g/kg, or combinations of Ascophyllum nodosum extract at 1 ml/kg with either 0.1, 0.2, 0.3, or 0.4 g/kg L-carnitine hydrochloride. Treated soybean seed was sown in pots containing soil with 10 biological replicates per treatment group in a randomized complete block design. Four days after full emergence, drought stress was imposed on all but the unstressed control treatment group through a 50% reduced irrigation regime relative to the full irrigation received by the unstressed control group.
# [2] = tested on: wheat (cultivar Skyfall, ref. SEED-0035); assay: Wheat subject to cold stress (seed treatment), NPQt and synergy assessment; settings: 10 days after sowing, ANE alone 0.36 g
# Method: Seed Treatment solutions were prepared per Table 20:
# 0.1 mL of treatment solution was pipetted into a 500-mL glass beaker around the edges and 10 g of wheat seed (cultivar Skyfall, ref. SEED-0035) was added. The beaker was swirled by hand for 1 min to coat the seeds, which were then swirled intermittently until dry, if needed.
# The trial was set up according to the following protocol: • 1. 32 8-0-6 cell packs were labelled with coloured stickers to denote five treatments with 4 cell packs for non-stress controls and 7 for the remaining 4 treatments. • 2. In a container 6 L of stored field soil and 600 mL water were mixed thoroughly. • 3. If soil was too dry, an additional 300 mL water, or an amount as appropriate, was added. • 4. […]
# An estimate of non-photochemical quenching (NPQt), which is the amount of incoming light that is regulated away from photosynthetic processes in order to reduce damage to the plant was obtained using the MultispeQ (B-4003-AA) from PhotosynQ, according to manufaturer's directions. For the photosynthesis measuments a total of 12-14 plants per treatment were measured. […]
# To supplement the observed evidence of efficacy, a synergy assessment was made. Synergy was calculated using two different methodologies, both of which find support in the literature: 1) Equation Ill from Colby, S. R. 1967. […]
# corn (cv. H140354) = assay: Corn drought stress controlled environment room trial (seed treatment); settings: 10 days after sowing
# Method: Corn seed (cv. H140354) was treated at a total application volume of 10 ml/kg with water (unstressed control and stressed control treatment groups), or an aqueous solution of Ascophyllum nodosum extract (ANE) at 2 ml/kg, or an aqueous solution of L-carnitine hydrochloride (CAR) at 0.3 g/kg, or a combinations of Ascophyllum nodosum extract at 2 ml/kg and 0.3 g/kg L-carnitine hydrochloride. Treated corn seed was sown in field soil inside cell packs set in greenhouse trays with 16 biological replicates per treatment group in a randomized complete block design. Three days after seeding, drought stress was imposed on all but the unstressed control treatment group through a 75% reduced irrigation regime relative to the full irrigation received by the unstressed control group, and assessments were made ten days after seeding.
# [3] = tested on: winter wheat (cv. Marius); assay: Wheat salinity stress greenhouse trial (seed treatment); settings: ANE alone 1 ml/kg, CAR alone 0.3 g/kg
# Method: Winter wheat seed (cv. Marius) was treated at a total application volume of 10 ml/kg with water (unstressed control and stressed control treatment groups), or an aqueous solution of Ascophyllum nodosum extract (ANE) at 1 ml/kg, or an aqueous solution of L-carnitine hydrochloride (CAR) at 0.3 g/kg, or combinations of Ascophyllum nodosum extract at 1 ml/kg with either 0.1, 0.2, 0.3, or 0.4 g/kg L-carnitine hydrochloride. Treated wheat seed was sown in pots containing soil with 10 biological replicates per treatment group in a randomized complete block design. Four days after full emergence, salinity stress was imposed on all but the unstressed control treatment group through irrigation with saline water (8 g/l NaCl) for the remainder of the trial. The unstressed control treatment group was irrigated with non-saline water.
# [4] = tested on: Marula soybean (reference SEED-003); assay: Soybean subject to salinity stress (seed treatment), NPQt, shoot weight and synergy assessment; settings: 17 days after sowing, ANE alone 0.36 g
# Method: To supplement the observed evidence of efficacy, a synergy assessment was made. Synergy was calculated using two different methodologies, both of which find support in the literature: 1) Equation Ill from Colby, S. R. 1967. Calculating synergistic and antagonistic responses of herbicide combinations. Weed Science 15:20-22. and 2) Equation 2 from Huang, Z., and K. A. Falco. 2021. Synergy assessment for plant growth by independent joint action theory. HortScience 56(5):623-626. doi: 10.21273/HORTSC115731-21. A one-sample, two-tailed t-test was used to assess the statistical significance of the difference between the observed and predicted means. The same Seed Treatments solutions (Table 20) and trial protocol were used as in Example 6, but seeds were planted at 1.5″. To coat seeds, 0.3 mL of treatment solution was pipetted into a 500-mL glass beaker around the edges and 30 g of soybean seed was added. Marula soybean seed (reference SEED-003) from Prograin was used, without any other treatment. An estimate of NPQt was obtained using the MultispeQ™ (B-4003-AA) from PhotosynQ, according to manufaturer's directions. For the photosynthesis measuments a total of 12-14 plants per treatment were measured. For Example 7, parametric analysis of variance (ANOVA) was done using the aov function in the ggpubr package, and multiple comparison testing was done with the Tukey test (alpha=0.1) using the TukeyHSD function in the stats package in R. Shoot weight was evaluated to assess whether the positive effects observed in NPQt was reflected in more robust plant grown. Seven cell packs per treatment were measured for shoot weight.
# [5] = 50 days after sowing, drought stress (50% reduced irrigation)
# [6] = compared to stressed control, 50 days after sowing, drought stress
# [7] = drought stress (50% reduced irrigation)
# [8] = compared to stressed control, drought stress
# [9] = drought stress (75% reduced irrigation), ANE alone 2 ml/kg, CAR alone 0.3 g/kg
# [10] = compared to stressed control, drought stress, ANE alone 2 ml/kg, CAR alone 0.3 g/kg
# [11] = compared to stressed control, Carnitine alone 0.30 g
structure (smiles),measurement,setting,value
"C[N+](C)(C)C[C@H](O)CC(=O)[O-].Cl [CAR, L-carnitine hydrochloride]","plant vigour, Mean","[1]; 21 days after sowing, drought stress (50% reduced irrigation), combinations as labelled",7.60
same,"plant vigour, Mean","[1]; 42 days after sowing, drought stress (50% reduced irrigation)",8.35
same,"foliar fresh weight, Mean",[1]; [5],9.94
same,"root fresh weight, Mean",[1]; [5],3.66
same,"plant vigour, Difference (%)","[1]; compared to stressed control, 21 days after sowing, drought stress",7.0%
same,"plant vigour, Difference (%)","[1]; compared to stressed control, 42 days after sowing, drought stress",11.3%
same,"foliar fresh weight, Difference (%)",[1]; [6],9.9%
same,"root fresh weight, Difference (%)",[1]; [6],67.5%
same,"foliar dry weight, Mean",soybean (cv. Mungo); [7],12.64
same,"foliar fresh weight, Mean",soybean (cv. Mungo); [7],49.1
same,"plant vigour, Mean",soybean (cv. Mungo); [7],9.4
same,"foliar dry weight, Difference (%)",soybean (cv. Mungo); [8],55.9%
same,"foliar fresh weight, Difference (%)",soybean (cv. Mungo); [8],24.9%
same,"plant vigour, Difference (%)",soybean (cv. Mungo); [8],23.7%
same,"non-photochemical quenching (NPQt), Mean","[2]; cold stress 13/8° C. day/night for 4 days, Carnitine alone 0.30 g (Table 20 solutions)",0.40
same,"non-photochemical quenching (NPQt), Difference (%)","[2]; compared to stressed control, cold stress, Carnitine alone 0.30 g",−4.8%
same,"linear electron flow (LEF), Mean",corn (cv. H140354); [9],10.14
same,"photosynthetic efficiency (photosystem II efficiency, Phi2), Mean",corn (cv. H140354); [9],0.32
same,"root length, Mean",corn (cv. H140354); [9],263.3
same,"linear electron flow (LEF), Difference (%)",corn (cv. H140354); [10],−4.3%
same,"non-photochemical quenching (NPQt), Difference (%)",corn (cv. H140354); [10],−10.0%
same,"photosynthetic efficiency (Phi2), Difference (%)",corn (cv. H140354); [10],5.7%
same,"root length, Difference (%)",corn (cv. H140354); [10],16.4%
same,"non-photochemical quenching (NPQt), Mean","corn (cv. H140354); indicator of plant stress level, drought stress (75% reduced irrigation), ANE alone 2 ml/kg, CAR alone 0.3 g/kg",2.32
same,decrease in LEF,"corn (cv. H140354); stated as decrease vs stressed control, CAR at 0.3 g/kg, drought stress",4.3%
same,"plant height, Mean","[3]; 22 days after sowing, salinity stress (irrigation with 8 g/l NaCl)",27.55
same,"relative chlorophyll content (SPAD), Mean","[3]; 29 days after sowing, salinity stress (8 g/l NaCl)",35.30
same,"plant height, Mean","[3]; 35 days after sowing, salinity stress (8 g/l NaCl)",37.39
same,"plant vigour, Mean","[3]; 43 days after sowing, salinity stress (8 g/l NaCl)",8.68
same,"fresh foliar biomass, Mean","[3]; 50 days after sowing, salinity stress (8 g/l NaCl)",10.6
same,"plant height, Difference (%)","[3]; compared to stressed control, 22 days after sowing, salinity stress",6.8%
same,"relative chlorophyll content (SPAD), Difference (%)","[3]; compared to stressed control, 29 days after sowing, salinity stress",17.1%
same,"plant height, Difference (%)","[3]; compared to stressed control, 35 days after sowing, salinity stress",17.2%
same,"plant vigour, Difference (%)","[3]; compared to stressed control, 43 days after sowing, salinity stress",9.9%
same,"fresh foliar biomass, Difference (%)","[3]; compared to stressed control, 50 days after sowing, salinity stress",29.3%
same,"shoot weight (Shoot Fresh Weight), Mean",[4]; Carnitine alone 0.30 g,1.69
same,"non-photochemical quenching (NPQt), Mean",[4]; Carnitine alone 0.30 g (Table 20 solutions),0.76
same,"non-photochemical quenching (NPQt), Difference (%)",[4]; [11],−12.4%
same,"shoot weight, Difference (%)",[4]; [11],3.0%

# From patent US20250275538A1, “COMPOSITIONS CONTAINING L-CARNITINE AND SEAWEED EXTRACT FOR MITIGATING ABIOTIC STRESS IN PLANTS” (ACADIAN SEAPLANTS LIMITED, priority 2022, published 2025)
